Results reported in patent US9107926B2, “Mutant selectivity and combinations of a phosphoinositide 3-kinase inhibitor compound and chemotherapeutic agents for the treatment of cancer” (Genentech, Inc., priority 2012, dated 2015).

Assays:
IPC298 = test: CellTiter-Glo cell proliferation assay; type: cell-based; conditions: Homo sapiens, IPC-298, Melanoma, NRAS Q61L
CAL120 = test: CellTiter-Glo cell proliferation assay; type: cell-based; conditions: Homo sapiens, CAL-120, Breast, WT
Experimental: (§2) Cell Culture Medium: RPMI or DMEM high glucose, 10% Fetal Bovine Serum, 2 mM L-Glutamine, P/S. Incubate O/N (overnight) at 37° C., 5% CO2.
(§3) Drug Addition to Cells, Cell Plate (1:10 dilution): Add 6 μl of media+compound directly to cells (54 μl of media on the cells already). Incubate 3 days at 37° C., 5% CO2 in an incubator that will not be opened often.
(§4) Day 5—Develop Plates, Thaw Cell Titer Glo Buffer at room temperature: Remove Cell Plates from 37° C. and equilibrate to room temperature for about 30 minutes. Add Cell Titer-Glo® Buffer to Cell Titer-Glo® Substrate (bottle to bottle). Add 30 μl Cell Titer-Glo® Reagent (Promega cat.#G7572) to each well of cells. Place on plate shaker for about 30 minutes. Read luminescence on Analyst HT Plate Reader (half second per well).

KPL4 = test: CellTiter-Glo cell proliferation assay; type: cell-based; conditions: Breast, Kinase-HET.1047H > R, HET.350D > N
Experimental: as §2, §3, §4

MDA-MB-436 = test: CellTiter-Glo cell proliferation assay; type: cell-based; conditions: Homo sapiens, Breast, PTEN
MX-1 = test: CellTiter-Glo cell proliferation assay; type: cell-based; conditions: Homo sapiens, MX1, Breast, PTEN
Experimental: as §2, §3, §4

T47D = test: CellTiter-Glo cell proliferation assay; type: cell-based; conditions: Homo sapiens, Breast, Kinase-HET.1047H > R, HET.350D > N
Experimental: as §2, §3, §4

EFM-192A = test: CellTiter-Glo cell proliferation assay; type: cell-based; conditions: Breast, HET.420C > R
HCC-2218 = test: CellTiter-Glo cell proliferation assay; type: cell-based; conditions: Homo sapiens, HCC2218, Breast, WT
HCT116 = test: CellTiter-Glo cell proliferation assay; type: cell-based; conditions: Homo sapiens, HCT-116, Colon, KRAS/HET.1047H > R
DLD-1 = test: CellTiter-Glo cell proliferation assay; type: cell-based; conditions: Homo sapiens, Colon, KRAS/HET.545E > K
SW948 = test: CellTiter-Glo cell proliferation assay; type: cell-based; conditions: Homo sapiens, Colon, KRAS/HOM.542E > K
KM12 = test: CellTiter-Glo cell proliferation assay; type: cell-based; conditions: Homo sapiens, Colon, PTEN
MO59K = test: CellTiter-Glo cell proliferation assay; type: cell-based; conditions: Glioma, PTEN/KRAS
MO59J = test: CellTiter-Glo cell proliferation assay; type: cell-based; conditions: Glioma, PTEN/KRAS
A549 = test: CellTiter-Glo cell proliferation assay; type: cell-based; conditions: Homo sapiens, Lung(NSCLC), K-RAS
HOP62 = test: CellTiter-Glo cell proliferation assay; type: cell-based; conditions: Homo sapiens, HOP-62, Lung(NSCLC), K-RAS
H647 = test: CellTiter-Glo cell proliferation assay; type: cell-based; conditions: Homo sapiens, NCI-H647, Lung(NSCLC), K-RAS
H460 = test: CellTiter-Glo cell proliferation assay; type: cell-based; conditions: Homo sapiens, NCI-H460, Lung(NSCLC), KRAS/HEt.545E > K
H1299 = test: CellTiter-Glo cell proliferation assay; type: cell-based; conditions: Homo sapiens, NCI-H1299, Lung(NSCLC), N-RAS
ABC-1 = test: CellTiter-Glo cell proliferation assay; type: cell-based; conditions: Homo sapiens, Lung(NSCLC), WT
H1650 = test: CellTiter-Glo cell proliferation assay; type: cell-based; conditions: Homo sapiens, NCI-H1650, Lung(NSCLC), PTEN
H417 = test: CellTiter-Glo cell proliferation assay; type: cell-based; conditions: Homo sapiens, NCI-H417, Lung(SC), Helical-HET.546Q > K, HOM.391I > M
H2171 = test: CellTiter-Glo cell proliferation assay; type: cell-based; conditions: Homo sapiens, NCI-H2171, Lung(SC), K-RAS
H82 = test: CellTiter-Glo cell proliferation assay; type: cell-based; conditions: Homo sapiens, NCI-H82, Lung(SC), PTEN
888-MEL = test: CellTiter-Glo cell proliferation assay; type: cell-based; conditions: Homo sapiens, Melanoma, B-Raf
A375 = test: CellTiter-Glo cell proliferation assay; type: cell-based; conditions: Homo sapiens, A-375, Melanoma, B-Raf
A2058 = test: CellTiter-Glo cell proliferation assay; type: cell-based; conditions: Homo sapiens, Melanoma, PTEN/B-Raf
Caov3 = test: CellTiter-Glo cell proliferation assay; type: cell-based; conditions: Homo sapiens, Caov-3, Ovarian, WT
cancer cell lines = test: cell proliferation assays across cancer cell lines (FIGS. 1-3, 12); type: cell-based
Source text: EC50 values were established for the experiments.

[1] = tested on: 22RV1 prostate cancer tumor xenografts; test: In vivo mouse tumor xenograft efficacy; set-up: species or system mice; conditions: PO daily (QD), 24 days
Experimental: (§1) Xenografts were initiated with cancer cells. […] Volume was calculated using the formula: […]

[2] = tested on: 537 MEL melanoma cancer tumor xenografts; test: In vivo mouse tumor xenograft efficacy; set-up: species or system mice; conditions: PO daily (QD), 21 days
Experimental: as §1

[3] = tested on: HM-7 colorectal cancer tumor xenografts; test: In vivo mouse tumor xenograft efficacy; set-up: species or system mice
Experimental: as §1

[4] = tested on: KPL4 breast tumor xenografts; test: In vivo mouse tumor xenograft efficacy; set-up: species or system mice
Experimental: as §1

[5] = tested on: MCF-7 neo/HER2 breast cancer tumor xenografts; test: In vivo mouse tumor xenograft efficacy; set-up: species or system mice; conditions: for % TGI@ day 21: QD
Experimental: as §1

[6] = tested on: NCI-H1975 non-small cell lung cancer (NSCLC) tumor xenografts; test: In vivo mouse tumor xenograft efficacy; set-up: species or system mice; conditions: PO daily (QD), 24 day treatment period; versus vehicle
Experimental: as §1

[7] = tested on: PC3 prostate cancer tumor xenografts; test: In vivo mouse tumor xenograft efficacy; set-up: species or system mice
Experimental: as §1

PI3K alpha E545K mutant = PI3K alpha E545K mutant (Homo sapiens, UniProt P42336, E545K); conditions: relative to PI3K alpha
Sequence of PI3K alpha E545K mutant (P42336 whole entry E545K): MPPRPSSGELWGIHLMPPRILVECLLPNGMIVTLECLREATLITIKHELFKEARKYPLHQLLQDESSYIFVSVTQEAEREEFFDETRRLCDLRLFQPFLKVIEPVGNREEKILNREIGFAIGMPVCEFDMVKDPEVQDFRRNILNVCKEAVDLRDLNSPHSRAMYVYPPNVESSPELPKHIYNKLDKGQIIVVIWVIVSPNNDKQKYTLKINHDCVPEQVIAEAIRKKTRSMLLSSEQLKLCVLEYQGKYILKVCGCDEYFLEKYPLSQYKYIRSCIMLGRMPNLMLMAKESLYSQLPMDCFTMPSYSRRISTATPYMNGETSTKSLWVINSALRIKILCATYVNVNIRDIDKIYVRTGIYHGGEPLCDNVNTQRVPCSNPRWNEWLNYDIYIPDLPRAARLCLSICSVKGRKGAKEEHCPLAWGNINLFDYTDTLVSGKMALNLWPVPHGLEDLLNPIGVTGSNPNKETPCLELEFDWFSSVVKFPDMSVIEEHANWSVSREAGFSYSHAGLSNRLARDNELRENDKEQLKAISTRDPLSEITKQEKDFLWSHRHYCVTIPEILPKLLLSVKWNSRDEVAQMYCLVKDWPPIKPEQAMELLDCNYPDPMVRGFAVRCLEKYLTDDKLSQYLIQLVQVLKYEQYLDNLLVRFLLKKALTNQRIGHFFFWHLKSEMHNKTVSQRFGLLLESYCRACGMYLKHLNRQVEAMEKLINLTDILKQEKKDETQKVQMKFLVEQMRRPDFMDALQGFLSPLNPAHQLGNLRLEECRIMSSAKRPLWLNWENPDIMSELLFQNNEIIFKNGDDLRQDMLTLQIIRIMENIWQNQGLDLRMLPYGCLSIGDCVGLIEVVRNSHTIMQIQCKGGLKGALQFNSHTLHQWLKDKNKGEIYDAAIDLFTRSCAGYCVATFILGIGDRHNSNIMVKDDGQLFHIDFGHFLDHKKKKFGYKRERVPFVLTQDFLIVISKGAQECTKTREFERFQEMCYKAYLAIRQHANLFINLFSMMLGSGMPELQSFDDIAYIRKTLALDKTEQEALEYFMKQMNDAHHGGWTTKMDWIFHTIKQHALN
Sequence of PI3K alpha E545K mutant (P27986 whole entry partner): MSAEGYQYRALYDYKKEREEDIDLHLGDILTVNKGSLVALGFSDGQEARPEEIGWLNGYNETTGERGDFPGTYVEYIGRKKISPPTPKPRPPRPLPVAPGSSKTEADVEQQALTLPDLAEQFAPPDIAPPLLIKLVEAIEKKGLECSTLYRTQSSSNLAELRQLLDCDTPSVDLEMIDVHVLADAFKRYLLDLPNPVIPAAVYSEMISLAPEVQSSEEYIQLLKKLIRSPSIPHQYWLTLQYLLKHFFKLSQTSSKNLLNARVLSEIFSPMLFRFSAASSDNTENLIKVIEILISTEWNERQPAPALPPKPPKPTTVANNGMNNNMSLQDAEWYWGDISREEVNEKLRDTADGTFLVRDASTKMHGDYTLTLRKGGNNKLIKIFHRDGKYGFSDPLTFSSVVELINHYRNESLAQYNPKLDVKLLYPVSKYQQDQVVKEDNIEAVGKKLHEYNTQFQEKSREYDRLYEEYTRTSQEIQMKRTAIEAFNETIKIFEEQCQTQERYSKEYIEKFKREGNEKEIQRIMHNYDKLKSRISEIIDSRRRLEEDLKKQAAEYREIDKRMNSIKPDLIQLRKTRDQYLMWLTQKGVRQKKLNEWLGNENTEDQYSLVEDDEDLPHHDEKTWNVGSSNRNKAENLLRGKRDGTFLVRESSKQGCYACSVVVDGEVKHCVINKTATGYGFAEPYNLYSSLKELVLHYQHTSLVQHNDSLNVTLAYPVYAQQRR
Experimental: After an incubation time of 30 minutes at room temperature, the reactions were stopped by the addition of GRP-1 and PIP3-TAMRA probe (Echelon-Inc., Salt Lake City, Utah.) 100 nM and 5 nM final concentrations respectively. Read with standard cut-off filters for the rhodamine fluorophore (λex=530 nm; λem=590 nm) in 384-well black low volume Proxiplates® (PerkinElmer, Wellesley, Mass.) Fluorescence polarization values were plotted as a function of the protein concentration. EC50 values were obtained by fitting the data to a four-parameter equation using KaleidaGraph® software (Synergy software, Reading, Pa.). This experiment also establishes the appropriate protein concentration to use in subsequent competition experiments with inhibitors.
After an incubation time of 30 minutes at room temperature, the reactions were stopped by the addition of GRP-1 and PIP3-TAMRA probe (Echelon-Inc., Salt Lake City, Utah.) 100 nM and 5 nM final concentrations respectively.
The compound was serially diluted in 100% DMSO. The kinase reaction was incubated for 1 h at room temperature, and the reaction was terminated by the addition of PBS. IC50 values were subsequently determined using sigmoidal dose-response curve fit (variable slope).

Cc1nc(-c2cn3c(n2)-c2ccc(-c4cnn(C(C)(C)C(N)=O)c4)cc2OCC3)n(C(C)C)n1 [GDC-0032, 2-(4-(2-(1-isopropyl-3-methyl-1H-1,2,4-triazol-5-yl)-5,6-dihydrobenzo[f]imidazo[1,2-d][1,4]oxazepin-9-yl)-1H-pyrazol-1-yl)-2-methylpropanamide]
EC50 (IPC298): 10000 nM | EC50 (CAL120): 3840 nM | EC50 (KPL4): 16 nM | EC50 (MDA-MB-436): 4690 nM | EC50 (MX-1): 892 nM | EC50 (T47D): 45 nM | EC50 (EFM-192A): 101 nM | EC50 (HCC-2218): 90 nM | EC50 (HCT116): 897 nM | EC50 (DLD-1): 2500 nM | EC50 (SW948): 62 nM | EC50 (KM12): 4690 nM | EC50 (MO59K): 4980 nM | EC50 (MO59J): 5650 nM | EC50 (A549): 906 nM | EC50 (HOP62): 3090 nM | EC50 (H647): 9020 nM | EC50 (H460): 603 nM | EC50 (H1299): 1720 nM | EC50 (ABC-1): 234 nM | EC50 (H1650): 1480 nM | EC50 (H417): 1280 nM | EC50 (H2171): 1450 nM | EC50 (H82): 10000 nM | EC50 (888-MEL): 10000 nM | EC50 (A375): 10000 nM | EC50 (A2058): 9240 nM | EC50 (Caov3): 4780 nM | sensitivity of cancer cell lines with HER2 amplification versus those without HER2 amplification (cancer cell lines; EC50, cell proliferation assays): about 44 times | potency against PIK3CA mutant and HER2+ cells (comparison) (cancer cell lines; FIGS. 1A, 1B, 2A, 2B): more potent against PIK3CA mutant cells and HER2+ breast cancer cells than GDC-0941 | tumor volume change [1]: dose-dependent decrease in tumor volume | tumor volume change [2]: dose-dependent decrease in tumor volume | tumor response ([3]; 25 mg/kg, end of treatment on day 7, versus vehicle): increased tumor regressions | tumor volume change ([3]; PO daily (QD), 7 days): dose dependent decrease in tumor volume | tumor response ([4]; 25 mg/kg, end of treatment on day 21, versus vehicle): increased tumor regressions | tumor volume change ([4]; PO daily (QD), 21 days, SCID beige mice): dose dependent decrease in tumor volume | tumor response ([5]; 22.5 mg/kg, after 10 days of treatment, versus vehicle): increased tumor regressions | tumor volume change ([5]; PO daily (QD), 20 days, nude mice): dose dependent decrease in tumor volume | % TGI@ day 21 ([5]; 5.0 mg/kg): 57% | % TGI@ day 21 ([5]; 10 mg/kg): 83% | % TGI@ day 21 ([5]; 20 mg/kg): 83% | tumor volume change [6]: dose-dependent decrease in tumor volume | anti-tumor efficacy ([7]; doses <12.5 mg/kg, daily dosing for 14 days): not efficacious | anti-tumor response ([7]; highest dose tested (25 mg/kg), daily, 14 days): tumor stasis | PI3K alpha E545K mutant (PI3K alpha E545K mutant): 0.4x
